According to US11092608B2, “Methods of identifying modulators of CASTOR1-GATOR2 interaction and use of same to modulate mTORC1” (Whitehead Institute for Biomedical Research, priority 2015, dated 2021):
Several values for one entry are separate records, joined by “and”; a condition that tells them apart may be missing. Identical values can stand only once.

Assays:
[1] = biological target: T1, CASTOR1 homodimer (Homo sapiens, UniProt Q8WTX7); assay: Arginine binding assay (equilibrium / competition binding with [3H]-labeled amino acids); settings: for binding of radiolabeled amino acid to CASTOR1 homodimer: immunopurified from HEK-293T cells, competed by excess nonradiolabelled arginine
T1 construct: made in house; host or cells: HEK-293T (transfected, pRK5-based cDNA plasmids; anti-FLAG immunoprecipitates)
T1 sequence (Q8WTX7 1-329) 1: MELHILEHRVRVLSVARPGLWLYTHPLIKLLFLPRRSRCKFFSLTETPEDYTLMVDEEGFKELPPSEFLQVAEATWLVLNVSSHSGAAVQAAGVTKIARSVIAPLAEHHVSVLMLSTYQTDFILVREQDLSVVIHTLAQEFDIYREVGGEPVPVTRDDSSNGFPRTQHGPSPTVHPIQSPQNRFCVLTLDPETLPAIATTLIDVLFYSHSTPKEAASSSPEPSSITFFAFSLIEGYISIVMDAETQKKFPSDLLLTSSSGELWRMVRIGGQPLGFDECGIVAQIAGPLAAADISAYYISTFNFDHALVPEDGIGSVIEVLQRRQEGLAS
T1 sequence (Q8WTX7 1-329) 2: T1 sequence (Q8WTX7 1-329) 1
Protocol: (§1) Four million HEK-293T cells were plated in a 15 cm plate four days prior to the experiment. Forty-eight hours after plating, the cells were transfected via the polyethylenimine method (Boussif et al., 1995) with the pRK5-based cDNA expression plasmids indicated in the figures in the following amounts: 15 μg FLAG-Rap2A, 400 ng CASTOR1-FLAG or CASTOR2-FLAG with 1200 ng CASTOR1-HA or 1200 ng CASTOR2-HA, 400 ng CASTOR1 1280A-FLAG with 1200 ng CASTOR1 1280A-HA. The total amount of plasmid DNA in each transfection was normalized to 15 μg with empty pRK5. Forty-eight hours after transfection cells were lysed as previously described (Wolfson et al., 2015). If multiple samples of the same type were represented in the experiment, the cell lysates were combined, mixed, and evenly distributed amongst the relevant tubes.
(§2) Anti-FLAG immunoprecipitates were prepared as previously described, with the exception that prior to incubation with lysates, the beads were blocked by rotating in 1 μg/μl bovine serum albumin (BSA) for 20 minutes at 4° C. and subsequently washed twice in lysis buffer. Thirty μl of the 50% slurry of beads in lysis buffer was added to each of the clarified cell lysates and incubated for 90 minutes.
(§3) For the binding assays, all immunoprecipitates were washed in pairs once with Triton wash buffer, three times with Triton lysis buffer supplemented with 500 mM NaCl, and three times with cytosolic buffer (0.1% Triton, 40 mM HEPES pH 7.4, 10 mM NaCl, 150 mM KCl, 2.5 mM MgCl2). All the liquid was subsequently aspirated and a 15 μl aliquot of proteins bound to the beads was incubated for one hour on ice in cytosolic buffer with the appropriate amount of [^3H]-labeled amino acids and cold amino acids. At the end of one hour, the beads were spun at 2,500 rpm for 25 seconds, aspirated, and rapidly washed three times with binding wash buffer (0.1% Triton, 40 mM HEPES pH 7.4, 150 mM NaCl). The beads were aspirated dry and resuspended in 85 μl of binding wash buffer. Three 10 μl aliquots of this mix were separately quantified using a TriCarb scintillation counter (PerkinElmer).
(§4) For each sample, an immunoprecipitation was performed in parallel. After washing four times as previously described, the beads were aspirated dry and resuspended in 50 μl FLAG elution buffer (Triton wash buffer supplemented with 300 mM NaCl and 1 mg/ml FLAG peptide), and incubated with rotation for 1 hour at 4° C. The eluent was subsequently resuspended in sample buffer. Equal volumes of the eluent were resolved by 10% SDS-PAGE and analyzed with Coomassie Blue stain. Kd values were calculated as previously described (Wolfson et al., 2015).

[2] = biological target: T2, interaction of GATOR2 with CASTOR1 homodimer (Homo sapiens, UniProt Q8WTX7); assay: In vitro CASTOR-GATOR2 dissociation assay; type: biochemical
T2 construct: made in house; host or cells: HEK-293T co-transfected with the CASTOR cDNAs; GATOR2 is the cells' endogenous complex, co-immunoprecipitated on anti-HA beads
T2 sequence (Q8WTX7 1-329) 1: T1 sequence (Q8WTX7 1-329) 1
T2 sequence (Q8WTX7 1-329) 2: T1 sequence (Q8WTX7 1-329) 1
Protocol: (§5) HEK-293T cells co-transfected with 40 ng CASTOR1-HA and either 80 ng CASTOR1-FLAG (CASTOR1 homodimer) or 80 ng CASTOR2-FLAG (CASTOR1-CASTOR2 heterodimer) were starved for all amino acids for 50 minutes, lysed and subjected to anti-HA immunoprecipitation as described previously. The CASTOR-GATOR2 complexes immobilized on agarose beads were washed once in Triton wash buffer, three times in Triton wash buffer supplemented with 500 mM NaCl, and then incubated for 20 minutes in 1 mL of ice-cold Triton wash buffer supplemented with 500 mM NaCl and the indicated concentrations of individual amino acids. The amount of GATOR2 that remained bound to CASTOR complexes was assayed by SDS-PAGE and immunoblotting as previously described.

[3] = biological target: T3, interaction of GATOR2 with CASTOR1-CASTOR2 heterodimer (Homo sapiens, UniProt Q8WTX7); assay: In vitro CASTOR-GATOR2 dissociation assay; type: biochemical
T3 construct: made in house; host or cells: HEK-293T co-transfected with the CASTOR cDNAs; GATOR2 is the cells' endogenous complex, co-immunoprecipitated on anti-HA beads
T3 sequence (Q8WTX7 1-329): T1 sequence (Q8WTX7 1-329) 1
T3 sequence (A6NHX0 1-329 partner): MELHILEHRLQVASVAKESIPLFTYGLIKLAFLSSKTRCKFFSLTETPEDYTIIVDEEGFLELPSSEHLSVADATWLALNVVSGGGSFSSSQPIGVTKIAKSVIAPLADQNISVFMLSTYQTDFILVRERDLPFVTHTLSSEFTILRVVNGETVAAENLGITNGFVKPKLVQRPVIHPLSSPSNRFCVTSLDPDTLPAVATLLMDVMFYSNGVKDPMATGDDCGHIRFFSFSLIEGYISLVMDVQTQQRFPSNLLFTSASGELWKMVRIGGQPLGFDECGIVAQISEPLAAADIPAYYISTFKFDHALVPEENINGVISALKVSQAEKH
Protocol: as §5

[4] = biological target: T4, CASTOR1-CASTOR2 heterodimer (Homo sapiens, UniProt Q8WTX7); assay: Arginine binding assay (equilibrium / competition binding with [3H]-labeled amino acids)
T4 construct: made in house; host or cells: HEK-293T (transfected, pRK5-based cDNA plasmids; anti-FLAG immunoprecipitates)
T4 sequence (Q8WTX7 1-329): T1 sequence (Q8WTX7 1-329) 1
T4 sequence (A6NHX0 1-329 partner): T3 sequence (A6NHX0 1-329 partner)
Protocol: as §1, §2, §3, §4

[5] = biological target: T5, CASTOR2 homodimer (Homo sapiens, UniProt A6NHX0); assay: Arginine binding assay (equilibrium binding with [3H]-labeled arginine); settings: immunopurified from HEK-293T cells
T5 construct: made in house; host or cells: HEK-293T (transfected, pRK5-based cDNA plasmids; anti-FLAG immunoprecipitates)
T5 sequence (A6NHX0 1-329) 1: T3 sequence (A6NHX0 1-329 partner)
T5 sequence (A6NHX0 1-329) 2: T3 sequence (A6NHX0 1-329 partner)
Protocol: as §1, with “If multiple samples of the same type were represented in the experiment, the cell lysates were combined, mixed, and evenly distributed amongst the relevant tubes.” left out
For the binding assays, all immunoprecipitates were washed in pairs once with Triton wash buffer, three times with Triton lysis buffer supplemented with 500 mM NaCl, and three times with cytosolic buffer (0.1% Triton, 40 mM HEPES pH 7.4, 10 mM NaCl, 150 mM KCl, 2.5 mM MgCl2). […] Three 10 μl aliquots of this mix were separately quantified using a TriCarb scintillation counter (PerkinElmer).
For each sample, an immunoprecipitation was performed in parallel. […] Equal volumes of the eluent were resolved by 10% SDS-PAGE and analyzed with Coomassie Blue stain. Kd values were calculated as previously described (Wolfson et al., 2015).

[6] = 400 μM arginine added to purified complexes
[7] = competition binding with increasing cold arginine, FLAG immunoprecipitates from HEK-293T cells

Row | SMILES | binding of radiolabeled amino acid to CASTOR1 homodimer [1] | dissociation of GATOR2 from CASTOR1 homodimer [2, 6] | EC50 ([2]; purified complexes from amino acid starved HEK-293T cells, CASTOR1 homodimer, read-out: arginine concentration for half-maximal disruption of GATOR2 interaction) | dissociation of GATOR2 from CASTOR1-CASTOR2 heterodimer [3, 6] | EC50 ([3]; purified complexes from amino acid starved HEK-293T cells, CASTOR1-CASTOR2 heterodimer, read-out: arginine concentration for half-maximal disruption of GATOR2 interaction) | arginine binding to CASTOR1 homodimer purified from E. coli ([1]; bacterially produced protein) | Kd [1, 7] | arginine binding to CASTOR1-CASTOR2 heterodimer purified from E. coli ([4]; bacterially produced protein) | Kd [4, 7] | amount of arginine bound by CASTOR1-CASTOR2 heterodimer relative to CASTOR1 homodimer ([4]; immunopurified from HEK-293T cells) | binding of tritiated arginine to CASTOR2 homodimer [5]
1 | CC(C)C[C@H](N)C(=O)O [leucine] | neither radiolabeled leucine nor lysine bound |  |  |  |  |  |  |  |  |  | 
2 | NCCCC[C@H](N)C(=O)O [lysine] | neither radiolabeled leucine nor lysine bound |  |  |  |  |  |  |  |  |  | 
3 | N=C(N)NCCC[C@H](N)C(=O)O [arginine] | bound | sufficient to dissociate GATOR2 | 20 to 40 µM | sufficient to dissociate GATOR2 | 20 to 40 µM | bound arginine to a comparable degree as the complexes prepared from human cells | ~30 µM and 34.8 µM | bound arginine to a comparable degree as the complexes prepared from human cells | ~30 µM and 24.2 µM | roughly half as much arginine as the CASTOR1 homodimer | not
